# Measurements reported in US10815276B2, “Cell penetrating peptides and methods of making and using thereof” (Entrada Therapeutics, Inc., priority 2014, dated 2020).
# Starred links: 1 amine or outer side, 2 acyl side, 3 side chain; linkers in the order of their positions; H or OH if unused. Positions of bridges follow the written chain, without caps; N, C: chain ends. Non-standard residues stand in square brackets, D forms with d. Residues, ends and D or L forms follow the SMILES beside them. No end group written: not given here. Trimesoyl = O=C(c1cc(C(=O)[*:2])cc(C(=O)[*:3])c1)[*:1]; Phe(4-F) = N[C@@H](Cc1ccc(F)cc1)C(=O)O; dPhe(4-F) = N[C@H](Cc1ccc(F)cc1)C(=O)O; 2Nal = N[C@@H](Cc1ccc2ccccc2c1)C(=O)O; Pip = O=C(O)[C@@H]1CCCCN1; Dap = NC[C@H](N)C(=O)O
# Assays:
# [1] = target: T1, Pin1 (Homo sapiens, UniProt Q13526, S16A/Y23A); test: Pin1 binding by FA (FITC-labeled peptides); details: FITC-labeled peptide, FA; read-out: KD
# T1 construct: The full-length human S16A/Y23A mutant Pin1 was expressed and purified from E. coli; made in house
# T1 sequence (Q13526 whole entry S16A/Y23A): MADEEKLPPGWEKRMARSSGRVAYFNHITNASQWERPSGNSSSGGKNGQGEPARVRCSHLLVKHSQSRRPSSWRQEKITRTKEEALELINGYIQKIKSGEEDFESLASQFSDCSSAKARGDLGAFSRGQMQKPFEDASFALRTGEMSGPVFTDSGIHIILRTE
# [2] = target: T1, Pin1; test: FA competition with FITC-labeled peptide 1; details: 100 nM FITC-labeled peptide 1, 400 nM Pin1; read-out: IC50 for inhibiting binding of peptide 1 to Pin1
# Protocol: (§1) (FIG. 37A) Binding to FITC-labeled peptide 37 to Pin1 as analyzed by fluorescent anisotropy (FA). (FIG. 37B) Competition between peptide 37 and FITC-labeled peptide 1 (100 nM) for binding to Pin1 (400 nM) as monitored by FA. (FIG. 37C) Effect of peptide 37 on the cis-trans isomerase activity of Pin1, Pin4, FKBP12, and cyclophilin A using Suc-Ala-Glu-Pro-Phe-pNA as substrate. (FIG. 37D) Comparison of the serum stability of peptides 1 and 37.
# (§2) To determine whether peptide 37 binds to the catalytic site of Pin1, its ability to compete with peptide 1 for binding to Pin1 by FA analysis was examined. […] Next, the catalytic activity of Pin1 toward a peptide substrate, Suc-Ala-Glu-Pro-Phe-pNA, in the presence of increasing concentrations of peptide 37 was monitored.
# [3] = target: T1, Pin1; test: cis-trans isomerase activity, Suc-Ala-Glu-Pro-Phe-pNA; type: biochemical; details: substrate Suc-Ala-Glu-Pro-Phe-pNA; read-out: IC50 for Pin1 catalytic activity
# Protocol: as §1, §2
# [4] = target: bovine serum albumin (BSA) (Bos taurus, UniProt P02769); test: biochemical; type: binding
# Chain of bovine serum albumin (BSA) (P02769 25-607): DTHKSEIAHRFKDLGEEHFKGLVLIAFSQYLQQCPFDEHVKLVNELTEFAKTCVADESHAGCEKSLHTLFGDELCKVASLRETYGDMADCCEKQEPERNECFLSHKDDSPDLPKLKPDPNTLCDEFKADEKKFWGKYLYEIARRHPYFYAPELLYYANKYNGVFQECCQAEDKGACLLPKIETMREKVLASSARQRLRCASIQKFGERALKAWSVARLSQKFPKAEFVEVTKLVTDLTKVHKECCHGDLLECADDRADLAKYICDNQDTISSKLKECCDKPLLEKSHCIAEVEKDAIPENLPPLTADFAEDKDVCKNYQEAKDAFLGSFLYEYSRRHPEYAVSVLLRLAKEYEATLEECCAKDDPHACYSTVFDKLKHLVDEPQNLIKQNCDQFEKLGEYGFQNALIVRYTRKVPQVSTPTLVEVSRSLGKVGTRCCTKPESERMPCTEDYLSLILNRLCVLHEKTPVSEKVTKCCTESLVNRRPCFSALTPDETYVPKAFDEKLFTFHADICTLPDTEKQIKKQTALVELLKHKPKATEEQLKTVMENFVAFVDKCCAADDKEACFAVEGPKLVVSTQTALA
# Protocol: (§3) The selectivity of peptide 37 was assessed by two different tests. First, peptide 37 was tested for binding to a panel of arbitrarily selected proteins including bovine serum albumin (BSA), protein tyrosine phosphatases 1B, SHP1, and SHP2, the Grb2 SH2 domain, Ras, and tumor necrosis factor-a. […] Peptide 37 was next tested for potential inhibition of Pin4, FKBP12, and cyclophilin A, the three other common human peptidyl-prolyl cis-trans isomerases. […] Peptide 37 had no effect on the catalytic activity of FKBP12 or cyclophilin A up to 5 μM concentration.
# [5] = target: T2, Grb2 SH2 domain (Homo sapiens, UniProt P62993); test: Selectivity panel binding
# T2 construct: the Grb2 SH2 domain
# T2 sequence (P62993 60-152 limits assumed): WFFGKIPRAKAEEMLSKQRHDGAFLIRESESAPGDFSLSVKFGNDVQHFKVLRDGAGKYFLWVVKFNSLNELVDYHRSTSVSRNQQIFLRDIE
# Protocol: as §3
# [6] = system: Ras; test: Selectivity panel binding
# Protocol: as §3
# [7] = target: SHP1 (Homo sapiens, UniProt P29350); test: Selectivity panel binding
# Chain of SHP1 (P29350 whole entry): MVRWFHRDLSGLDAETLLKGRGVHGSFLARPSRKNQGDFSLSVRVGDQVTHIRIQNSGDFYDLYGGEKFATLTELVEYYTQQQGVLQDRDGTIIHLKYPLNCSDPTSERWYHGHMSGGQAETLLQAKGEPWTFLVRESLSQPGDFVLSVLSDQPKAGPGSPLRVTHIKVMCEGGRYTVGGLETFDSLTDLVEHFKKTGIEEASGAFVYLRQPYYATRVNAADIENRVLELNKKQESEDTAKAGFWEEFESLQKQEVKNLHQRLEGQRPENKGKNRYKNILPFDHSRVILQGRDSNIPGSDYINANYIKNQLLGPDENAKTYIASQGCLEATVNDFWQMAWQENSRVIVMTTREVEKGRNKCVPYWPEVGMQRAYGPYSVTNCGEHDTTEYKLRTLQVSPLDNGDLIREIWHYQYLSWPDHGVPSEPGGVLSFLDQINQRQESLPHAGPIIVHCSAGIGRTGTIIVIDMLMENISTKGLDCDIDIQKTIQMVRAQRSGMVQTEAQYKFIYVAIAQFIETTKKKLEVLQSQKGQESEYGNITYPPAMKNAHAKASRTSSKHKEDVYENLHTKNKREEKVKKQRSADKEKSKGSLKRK
# Protocol: as §3
# [8] = target: SHP2 (Homo sapiens, UniProt Q06124); test: Selectivity panel binding
# Chain of SHP2 (Q06124 whole entry, species assumed): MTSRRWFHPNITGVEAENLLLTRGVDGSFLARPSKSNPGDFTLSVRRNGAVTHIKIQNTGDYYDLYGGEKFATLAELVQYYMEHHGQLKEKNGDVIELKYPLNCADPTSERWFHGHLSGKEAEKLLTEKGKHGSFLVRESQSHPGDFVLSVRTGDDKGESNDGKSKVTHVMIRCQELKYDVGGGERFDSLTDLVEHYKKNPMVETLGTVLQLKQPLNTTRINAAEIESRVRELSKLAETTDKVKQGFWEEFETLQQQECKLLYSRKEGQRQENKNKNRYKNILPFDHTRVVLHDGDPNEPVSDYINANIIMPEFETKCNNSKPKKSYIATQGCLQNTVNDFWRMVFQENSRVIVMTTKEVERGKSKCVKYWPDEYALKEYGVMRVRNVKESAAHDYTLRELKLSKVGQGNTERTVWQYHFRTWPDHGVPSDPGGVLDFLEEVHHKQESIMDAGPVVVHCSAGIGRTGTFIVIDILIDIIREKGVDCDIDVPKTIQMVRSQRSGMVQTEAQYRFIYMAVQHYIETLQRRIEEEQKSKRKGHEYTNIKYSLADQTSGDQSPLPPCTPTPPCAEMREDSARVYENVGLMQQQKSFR
# Protocol: as §3
# [9] = target: protein tyrosine phosphatases 1B (Homo sapiens, UniProt P18031); test: Selectivity panel binding
# Chain of protein tyrosine phosphatases 1B (P18031 whole entry): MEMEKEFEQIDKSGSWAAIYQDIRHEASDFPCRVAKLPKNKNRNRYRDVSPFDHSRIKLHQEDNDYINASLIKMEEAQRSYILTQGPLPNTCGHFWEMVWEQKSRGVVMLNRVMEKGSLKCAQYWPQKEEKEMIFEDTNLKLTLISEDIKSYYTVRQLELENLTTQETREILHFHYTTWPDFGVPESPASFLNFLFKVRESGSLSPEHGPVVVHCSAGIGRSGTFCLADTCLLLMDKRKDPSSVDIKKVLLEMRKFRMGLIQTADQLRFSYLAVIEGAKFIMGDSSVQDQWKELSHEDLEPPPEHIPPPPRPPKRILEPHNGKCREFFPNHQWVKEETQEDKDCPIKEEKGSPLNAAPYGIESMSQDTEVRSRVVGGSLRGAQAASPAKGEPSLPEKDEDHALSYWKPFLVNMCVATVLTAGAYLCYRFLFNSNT
# Protocol: as §3
# [10] = target: tumor necrosis factor-a (Homo sapiens, UniProt P01375); test: Selectivity panel binding
# Chain of tumor necrosis factor-a (P01375 77-233 limits assumed): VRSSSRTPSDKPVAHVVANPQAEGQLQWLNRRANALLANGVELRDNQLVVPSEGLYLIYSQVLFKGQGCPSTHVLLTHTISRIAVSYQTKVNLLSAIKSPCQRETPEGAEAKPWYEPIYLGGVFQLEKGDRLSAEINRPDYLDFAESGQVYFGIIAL
# Protocol: as §3
# [11] = target: FKBP12 (Homo sapiens, UniProt P62942); test: cis-trans isomerase activity; type: biochemical; details: up to 5 μM
# Chain of FKBP12 (P62942 whole entry): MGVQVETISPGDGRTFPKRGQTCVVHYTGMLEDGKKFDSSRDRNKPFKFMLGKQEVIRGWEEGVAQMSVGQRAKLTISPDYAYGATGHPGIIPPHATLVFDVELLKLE
# Protocol: as §1, §3
# [12] = target: Pin4 (Homo sapiens, UniProt Q9Y237); test: cis-trans isomerase activity; type: biochemical
# Chain of Pin4 (Q9Y237 whole entry): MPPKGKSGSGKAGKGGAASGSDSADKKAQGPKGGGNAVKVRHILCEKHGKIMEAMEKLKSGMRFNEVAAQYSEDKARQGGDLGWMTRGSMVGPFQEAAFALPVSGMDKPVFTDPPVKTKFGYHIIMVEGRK
# Protocol: as §1, §3
# [13] = target: cyclophilin A (Homo sapiens, UniProt P62937); test: cis-trans isomerase activity; type: biochemical; details: up to 5 μM
# Chain of cyclophilin A (P62937 whole entry): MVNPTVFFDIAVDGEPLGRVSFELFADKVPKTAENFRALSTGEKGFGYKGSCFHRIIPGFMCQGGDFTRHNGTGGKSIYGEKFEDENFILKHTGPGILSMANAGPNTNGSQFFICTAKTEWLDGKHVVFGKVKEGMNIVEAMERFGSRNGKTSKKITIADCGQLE
# Protocol: as §1, §3
# [14] = system: HeLa cells; test: Cellular uptake by flow cytometry; type: cell-based, human
# Protocol: The cellular uptake efficiency of peptide 37, peptide 1, and a previously reported membrane-impermeable monocyclic Pin1 inhibitor (Table 18, peptide 46) was assessed by incubating HeLa cells with the FITC-labeled peptides (5 μM) for 2 h and quantifying the total intracellular fluorescence by flow cytometry analysis. […] By contrast, cells treated with peptides 1 and 37 gave MFI values of 2562 and 8792, respectively. Thus, peptide 37 is internalized by HeLa cells ˜4-fold more efficiently than peptide 1. Presumably, the negative charged phosphate group of peptide 1 interacted electrostatically with the positively charged CPP motif and reduced the cellular uptake efficiency of the latter.
# [15] = system: HeLa cells; test: Western blot of PML protein level; type: cell-based, human
# Protocol: FIGS. 38A, 38B, 38C, and 38D display cellular activity of peptide 37. (FIG. 38A) Cellular uptake of peptides 1, 37, and 46 (5 μM) by HeLa cells as analyzed by flow cytometry. MFI, mean fluorescence intensity; none, untreated cells (no peptide). (FIG. 38B) Anti-proliferative effect of peptides 37, 46, and 47 on HeLa cells as measured by MTT assay. (FIG. 38C) Western blots showing the effect of peptides 1, 37 and 47 on the protein level of PML in HeLa cells. β-Actin was used as loading control. (FIG. 38D) Quantification of western blot results from (FIG. 38C). Data reported were after background subtraction and represent the mean±SD from 3 independent experiments.
# Finally, to ascertain that Pin1 is the molecular target of peptide 37 in vivo, the intracellular protein level of a well-established Pin1 substrate, […] (PML), was examined by western blot analysis. Pin1 negatively regulates the PML level in a phosphorylation-dependent manner and inhibition of Pin1 activity is expected to stabilize PML and increase its intracellular level. […] The effect was already significant at 0.2 μM inhibitor (1.8-fold increase in the PML level) and plateaued at ˜1 μM (3.3-fold increase). Again, bicyclic peptide 47 had no effect under the same conditions, while peptide 1 (the positive control, at 5 μM) increased the PML level by 3.1-fold.
# [16] = system: HeLa cells
# Source text: The effect of peptide 37 on the growth of HeLa cells was examined by using the MTT cell viability assay.
# [17] = target: T3, recombinant caspase-3 enzyme (Homo sapiens, UniProt P42574); test: In vitro fluorimetric caspase assay; type: biochemical; details: 10 μM substrate, 10 mM DTT
# T3 construct: purchased EMD Chemicals (San Diego, Calif.)
# T3 sequence (P42574 29-175 limits assumed): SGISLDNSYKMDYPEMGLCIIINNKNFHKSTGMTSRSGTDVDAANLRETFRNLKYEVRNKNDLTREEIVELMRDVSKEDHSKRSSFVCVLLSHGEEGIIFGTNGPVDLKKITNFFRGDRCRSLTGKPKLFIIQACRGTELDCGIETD
# T3 sequence (P42574 176-277 limits assumed): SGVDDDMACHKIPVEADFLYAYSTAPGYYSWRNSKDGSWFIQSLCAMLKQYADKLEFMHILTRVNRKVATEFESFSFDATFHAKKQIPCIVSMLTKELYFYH
# Source text: Reagents for peptide synthesis were purchased from Advanced ChemTech (Louisville, Ky.), NovaBiochem (La Jolla, Calif.), or Anaspec (San Jose, Calif.). Rink resin LS (100-200 mesh, 0.2 mmol/g) was purchased from Advanced ChemTech. Dextrane^Rho, trypsin and α-chymotrypsin were purchased from Sigma-Aldrich (St. Louis, Mo.). Cell culture media, fetal bovine serum, penicillin-streptomycin, 0.25% trypsin-EDTA, and DPBS were purchased from Invitrogen (Carlsbad, Calif.). Nuclear staining dye DRAQ5 was purchased from Thermo Scientific (Rockford, Ill.). Caspase-3, Human, recombinant protein was purchased from EMD Chemicals (San Diego, Calif.).
# 0.5 μL (100 U/μL) caspase-3 enzyme was first incubated with 90 μL of reaction buffer (50 mM HEPES, pH 7.4, 100 mM NaCl, 10 mM DTT) for 30 min in 96-well plate. Fluorogenic substrates (10 μL, 100 μM) were mixed into the above solutions to start the reactions, and the plate was measured on a Spectramax M5 plate reader (Ex=360 nm, Em=440 nm) (Molecular Devices). Fluorescence units (FU) increase at one-minute intervals was correlated to the release of Amc due to protease activity. The ΔFU/min was calculated from the linear portion of the reaction curve. Reported values are averages of three trials with the standard deviation indicated.
compound,measurement,setting,value
"C[C@@H]1NC(=O)[C@H](CCCNC(=N)N)NC(=O)[C@H](Cc2ccc3ccccc3c2)NC(=O)[C@@H]2CCCCN2C(=O)[C@@H]([C@H](C)O)NC(=O)[C@H](Cc2ccc(F)cc2)NC(=O)[C@@H](Cc2ccc(F)cc2)NC(=O)c2cc3cc(c2)C(=O)NC[C@H](NC(=O)[C@@H](Cc2ccccc2)NC1=O)C(=O)N[C@@H](Cc1ccccc1)C(=O)N[C@@H](Cc1ccc2ccccc2c1)C(=O)N[C@@H](CCCNC(=N)N)C(=O)N[C@@H](CCCNC(=N)N)C(=O)N[C@@H](CCCNC(=N)N)C(=O)N[C@@H](CCCNC(=N)N)C(=O)N[C@H](C(=O)N[C@@H](CCCCN)C(N)=O)CNC3=O [Peptide 37, bicyclo[Tm-(D-4-Fpa-Fpa-D-Thr-Pip-Nal-Arg-Ala-D-Phe)-Dap-(Phe-Nal-Arg-Arg-Arg-Arg-Dap)]-Lys] ([dPhe(4-F)][Phe(4-F)][dT][Pip][2Nal]RA[dF][Dap]F[2Nal]RRRR[Dap]K-NH2; linker N-9-16 via Trimesoyl; C-terminus assumed)",Kd,[1],120 nM
same,IC50,[2],190 nM
same,IC50,[3],170 nM
same,Kd,[4],~20000 nM
same,Binding to Grb2 SH2 domain,[5],not any of the other six proteins
same,Binding to Ras,[6],not any of the other six proteins
same,Binding to SHP1,[7],not any of the other six proteins
same,Binding to SHP2,[8],not any of the other six proteins
same,Binding to protein tyrosine phosphatase 1B,[9],not any of the other six proteins
same,Binding to tumor necrosis factor-a,[10],not any of the other six proteins
same,Effect on catalytic activity of FKBP12,[11],no effect
same,inhibition at 5 µM,[12]; 5 μM inhibitor,~15%
same,IC50,[12]; estimated,~34000 nM
same,Effect on catalytic activity of cyclophilin A,[13],no effect
same,Internalization more efficient than peptide 1,[14],~4 fold
same,Mean fluorescence intensity (MFI),"[14]; 5 μM FITC-labeled peptide, 2 h",8792
same,Increase in the PML level,[15]; 0.2 μM inhibitor,1.8 fold
same,Effect on the PML level,[15]; 0.2-5 μM,concentration-dependent increases in the PML level
same,Increase in the PML level (plateau),[15]; ~1 μM inhibitor,3.3 fold
same,Growth inhibition,[16]; 3-day treatment with 5 μM,> 60%
same,IC50,"[16]; read-out: IC50 of HeLa cell growth, MTT",1000 nM
"A^c−RRRRRRRRRDΩUD^−A^mc (not fully specified (N-terminus, C-terminus); printed as Ac−RRRRRRRRRDΩUD−Amc) [Peptide 7 (Example 2)]","In vitro activity against recombinant caspase-3 enzyme, ΔFU/min",[17],45.3 ± 6.5 ΔFU/min
